Test results reported in US20140127136A1, “LIPOSOMES USEFUL FOR DRUG DELIVERY TO THE BRAIN” (Merrimack Pharmaceuticals, Inc., priority 2004, published 2014).
Several values for one entry are separate records, joined by “and”; a condition that tells them apart may be missing. Equal entries are not always repeated. Structures can show the parent of a compound that is named as a salt. Where two headings read alike, the source gives them in different places.

Tests used:
in vivo = conditions: Sprague-Dawley, rat, brain, other: CED infusion into the brain, 0.06 mg
orthotopic U87 tumors = conditions: 60 μg (3 mg/ml), single CED 5 d after implantation
[1] = tested on: human breast carcinoma BT-474 xenografts; assay: Antitumor efficacy of CPT-11 liposomes (TEA-Pn) against breast cancer xenografts in nude mice; assay type: in vivo, NCR nu/nu mice; conditions: 50 mg CPT-11/kg i.v. on days 14, 18, 21, 25
[2] = Pharmacokinetics of irinotecan formulations administered by CED into normal brain tissue; conditions: 3 mg/ml
[3] = mouse, 0.1 mg/ml
[4] = tested on: subcutaneous xenografts of human colon carcinoma (HT-29); assay: Antitumor activity of free and liposomal CPT-11 against HT-29 xenografts; assay type: in vivo, NCR nu/nu athymic nude mice; conditions: 50 mg/kg per injection
[5] = Toxicity of free and liposomal irinotecan following CED delivery into the brain; assay type: in vivo, rats; conditions: for brain tissue toxicity 60 days after CED: single 20 μl CED infusion
Protocol: Ls-CPT-11 was prepared and the CED procedure used were described in Example 68. To evaluate toxicity, healthy rats received a single infusion of free, i.e., dissolved, or Ls-CPT-11 via CED. […] Rats were euthanized 60 days after CED treatments, and their brains were harvested, sectioned and stained for standard pathology xamination.
No systemic toxicities, including weight loss or diarrhea, were observed following CED of any of the treatments. Furthermore, no gross neurologic or behavioral changes were noted post-treatment. Indeed, no dose-limiting toxicities for nanoliposomal CPT-11 were identified up to 1.6 mg/rat in a single 0.02 mL infusion, which represented the highest dose achieved without further concentrationg the liposomal sample.

[6] = MTD seeking study of CPT-11 formulations, single i.v. injection; assay type: in vivo, Swiss Webster mice
[7] = inj. dose 60 mg/kg, single i.v., individual mice, hydrochloride, 60 mg/kg
[8] = inj. dose 70 mg/kg, single i.v., individual mice, hydrochloride, 70 mg/kg
[9] = inj. dose 80 mg/kg, single i.v., individual mice, hydrochloride, 80 mg/kg

## CCc1c2c(nc3ccc(OC(=O)N4CCC(N5CCCCC5)CC4)cc13)-c1cc3c(c(=O)n1C2)COC(=O)[C@]3(O)CC [free CPT-11, Irinotecan hydrochloride]
In vivo
  MRT: 9.6 h
Orthotopic U87 tumors
  Median survival: 28.5 days
[1]
  average tumor size at day 46: about 1,000 mm^3
  effect on tumor growth: reduced the rate of tumor growth
[2]
  AUC∞: 16.4 µg·days/g
[3]; 2 h
  CPT-11, % carboxylate: 35.2 ± 1.9%
  CPT-11, % lactone: 1.9 ± 0.4%
  SN-38, % carboxylate: 58.4 ± 2.1%
  SN-38, % lactone: 4.4 ± 0.1%
[3]; 12 h
  CPT-11, % carboxylate: 11.5 ± 0.9%
  CPT-11, % lactone: <0.1%
  SN-38, % carboxylate: 78.6 ± 1.3%
  SN-38, % lactone: 9.9 ± 0.8%
[3]; 24 h
  CPT-11, % carboxylate: <0.1%
  CPT-11, % lactone: <0.1%
  SN-38, % carboxylate: 77.5 ± 9.8%
[4]
  animals tumor-free at the end of study without signs of regrowth: no animals without tumor regrowth
  effect on the tumor growth: only minor effect on the tumor growth
[4]; 4 i.v. injections at intervals of 4 days
  Average tumor doubling time: 4.8 days
[5]; 60 μg
  brain tissue toxicity 60 days after CED: no apparent tissue toxicity
[5]; 0.4 mg/rat
  brain tissue toxicity 60 days after CED: extensive tissue necrosis within the CNS
[5]; CED into rat brain
  highest tolerable dose: 60 μg/infusion
[6]; Swiss Webster, mouse, in vivo, iv, acute, single i.v. injection, mice
  MTD at 7 days: 80 mg/kg
[6]; [7]
  Animal body weight at day 1 post injection: 20.4 g and 19.1 g and 20.0 g and 18.7 g
  Animal body weight at day 2 post injection: 20.9 g and 19.4 g
  Animal body weight at day 4 post injection: 22.1 g and 20.2 g
  Animal body weight at day 6 post injection: 22.2 g and 20.4 g
  Animal body weight at day 11 post injection: 22.5 g and 21.1 g
[6]; [8]
  Animal body weight at day 1 post injection: 20.0 g and 21.8 g
  Animal body weight at day 2 post injection: 20.6 g and 22.4 g
[6]; [9]
  Animal body weight at day 1 post injection: 19.9 g and 20.8 g
  Animal body weight at day 2 post injection: 20.1 g and 21.1 g
  Animal body weight at day 3 post injection: 19.3 g and 20.6 g (2×) and 21.4 g and 21.9 g
[6]; inj. dose 90 mg/kg, single i.v., individual mice
  outcome after injection: died 1-2 min after injection
[6]; inj. dose 100 mg/kg, single i.v., individual mice
  outcome after injection: died 1-2 min after injection
50 mg/kg per injection (free: permanent; liposomal: transient)
  weight loss during treatment, % of pre-treatment value: about 6%
50 mg/kg, for about one hour after injection
  condition after drug injection: temporary morbidity
